# Results from PubChem BioAssay AID228 (DTP/NCI, 2004).
# Where “and” joins values, the source holds several entries; their conditions need not be identical. Equal values may be shown once. Results filed as inconclusive are left out.
# Tested on: BDF1 mice, Friend leukemia sc, tumor weight T/C
# Assay: NCI In Vivo Anticancer Drug Screen. Data for tumor model Friend Virus Leukemia (Solid) (subcutaneous) in B6D2F1 (BDF1) mice
# Details: endpoint: mean tumor weight, higher = larger tumour
# Experimental: The antitumor activity of compounds was measured in mice bearing transplantable tumors. Survival or tumor size were measured and the results are expressed as the measurement made in the treated group (T) divided by the measurement made in the vehicle treated control group (C). The tumor model used in this assay is Friend Virus Leukemia (Solid) (subcutaneous) in B6D2F1 (BDF1) mice
# [1] = dose: 50.0 mg/kg/injection, schedule: Q01DX011 (ip), vehicle: carboxymethylcellulose (CMC)
# [2] = dose: 1.0 mg/kg/injection, schedule: Q01DX011 (sc), vehicle: steriod suspending solution
# [3] = dose: 10.0 mg/kg/injection, schedule: Q01DX011 (ip), vehicle: saline
# [4] = dose: 15.0 mg/kg/injection, schedule: Q01DX011 (ip), vehicle: saline
# [5] = dose: 50.0 mg/kg/injection, schedule: Q01DX011 (sc), vehicle: steriod suspending solution
# [6] = dose: 100.0 mg/kg/injection, schedule: Q01DX011 (sc), vehicle: steriod suspending solution
# [7] = dose: 200.0 mg/kg/injection, schedule: Q01DX011 (sc), vehicle: steriod suspending solution
# [8] = dose: 10.0 mg/kg/injection, schedule: Q01DX011 (sc), vehicle: steriod suspending solution
# [9] = dose: 20.0 mg/kg/injection, schedule: Q01DX011 (sc), vehicle: steriod suspending solution
# [10] = dose: 250.0 mg/kg/injection, schedule: Q01DX011 (sc), vehicle: steriod suspending solution
# [11] = dose: 500.0 mg/kg/injection, schedule: Q01DX011 (sc), vehicle: steriod suspending solution
# [12] = dose: 400.0 mg/kg/injection, schedule: Q01DX011 (sc), vehicle: steriod suspending solution
# [13] = dose: 30.0 mg/kg/injection, schedule: Q01DX011 (ip), vehicle: carboxymethylcellulose (CMC)
smiles,measurement,setting,value
Nc1nc2n[nH]nc2c(=O)[nH]1,T/C,"dose: 11.12 mg/kg/injection, schedule: Q01DX011 (ip), vehicle: carboxymethylcellulose (CMC)",158 % of control
same,T/C,"dose: 11.8 mg/kg/injection, schedule: Q01DX011 (ip), vehicle: other",190 % of control
same,T/C,"dose: 22.7 mg/kg/injection, schedule: Q01DX011 (ip), vehicle: other",189 % of control
same,T/C,"dose: 45.5 mg/kg/injection, schedule: Q01DX011 (ip), vehicle: other",152 % of control
same,T/C,"dose: 89.0 mg/kg/injection, schedule: Q01DX011 (ip), vehicle: carboxymethylcellulose (CMC)",44 % of control
same,T/C,"dose: 89.0 mg/kg/injection, schedule: Q01DX011 (ip), vehicle: other",123 % of control
CCCCCCCCCCCCCS,T/C,[1],109 % of control
same,T/C,"dose: 100.0 mg/kg/injection, schedule: Q01DX011 (ip), vehicle: carboxymethylcellulose (CMC)",105 % of control
same,T/C,"dose: 200.0 mg/kg/injection, schedule: Q01DX011 (ip), vehicle: carboxymethylcellulose (CMC)",101 % of control
C=C(C)C(=O)OCC1CO1 (stereo not given),T/C,"dose: 50.0 mg/kg/injection, schedule: Q01DX011 (ip), vehicle: water",99 % of control
same,T/C,"dose: 100.0 mg/kg/injection, schedule: Q01DX011 (ip), vehicle: water",110 % of control
O=c1cn[nH]c(=O)[nH]1,T/C,"dose: 110.0 mg/kg/injection, schedule: Q01DX011 (ip), vehicle: carboxymethylcellulose (CMC)",72 % of control
same,T/C,"dose: 220.0 mg/kg/injection, schedule: Q01DX011 (ip), vehicle: carboxymethylcellulose (CMC)",89 % of control
same,T/C,"dose: 440.0 mg/kg/injection, schedule: Q01DX011 (ip), vehicle: carboxymethylcellulose (CMC)",96 % of control
C[C@H]1C[C@H]2[C@@H]3CC[C@](O)(C(=O)CO)[C@@]3(C)C[C@H](O)[C@]2(F)[C@@]2(C)C=CC(=O)C=C12,T/C,"dose: 0.5 mg/kg/injection, schedule: Q01DX011 (sc), vehicle: steriod suspending solution",61 % of control and 63 % of control
same,T/C,[2],76 % of control and 91 % of control
same,T/C,"dose: 3.0 mg/kg/injection, schedule: Q01DX011 (sc), vehicle: steriod suspending solution",60 % of control and 74 % of control
same,T/C,"dose: 6.0 mg/kg/injection, schedule: Q01DX011 (sc), vehicle: steriod suspending solution",31 % of control
same,T/C,"dose: 7.0 mg/kg/injection, schedule: Q01DX011 (sc), vehicle: steriod suspending solution",47 % of control
same,T/C,"dose: 15.0 mg/kg/injection, schedule: Q01DX011 (sc), vehicle: steriod suspending solution",28 % of control
same,T/C,"dose: 30.0 mg/kg/injection, schedule: Q01DX011 (sc), vehicle: steriod suspending solution",17 % of control
same,T/C,"dose: 60.0 mg/kg/injection, schedule: Q01DX011 (sc), vehicle: steriod suspending solution",10 % of control
same,T/C,"dose: 120.0 mg/kg/injection, schedule: Q01DX011 (sc), vehicle: steriod suspending solution",5 % of control
CN=C(N)c1ccc(N=C(N)c2ccc(C(N)=Nc3ccc(C(N)=NC)cc3)cc2)cc1,T/C,"dose: 7.5 mg/kg/injection, schedule: Q01DX011 (ip), vehicle: saline",182 % of control
same,T/C,[3],183 % of control
same,T/C,[4],165 % of control
COc1ccc(-c2coc3cc(OC)c(OC)c(OC)c3c2=O)cc1,T/C,[5],299 % of control
same,T/C,[6],250 % of control
same,T/C,[7],275 % of control
C[C@]12C=CC(=O)C=C1CC[C@@H]1[C@@H]2C(=O)C[C@@]2(C)[C@H]1CC[C@]2(O)C(=O)CO,T/C,[8],92 % of control
same,T/C,[9],27 % of control
same,T/C,"dose: 25.0 mg/kg/injection, schedule: Q01DX011 (sc), vehicle: steriod suspending solution",23 % of control
same,T/C,[5],11 % of control
same,T/C,[6],9 % of control
same,T/C,[7],11 % of control
O=C1C(NC(=O)C2CCCCC2)=C(N2CC2)C(=O)C(NC(=O)C2CCCCC2)=C1N1CC1,T/C,"dose: 22.0 mg/kg/injection, schedule: Q01DX011 (ip), vehicle: carboxymethylcellulose (CMC)",106 % of control
same,T/C,"dose: 43.0 mg/kg/injection, schedule: Q01DX011 (ip), vehicle: carboxymethylcellulose (CMC)",82 % of control
same,T/C,"dose: 87.0 mg/kg/injection, schedule: Q01DX011 (ip), vehicle: carboxymethylcellulose (CMC)",62 % of control
same,T/C,"dose: 350.0 mg/kg/injection, schedule: Q01DX011 (ip), vehicle: carboxymethylcellulose (CMC)",61 % of control
CC(=O)[C@H]1CC[C@H]2[C@@H]3CCC4=CC(=O)CC[C@]4(C)[C@H]3CC[C@]12C,T/C,[10],228 % of control
same,T/C,[11],165 % of control
same,T/C,"dose: 750.0 mg/kg/injection, schedule: Q01DX011 (sc), vehicle: steriod suspending solution",212 % of control
same,T/C,"dose: 1000.0 mg/kg/injection, schedule: Q01DX011 (sc), vehicle: steriod suspending solution",291 % of control
O=C(O)c1ccc(-c2ccccc2)cc1,T/C,[1],103 % of control
CCC(=O)O[C@H]1CC[C@H]2[C@@H]3CCC4=CC(=O)CC[C@]4(C)[C@H]3CC[C@]12C,T/C,[2],84 % of control
same,T/C,"dose: 5.0 mg/kg/injection, schedule: Q01DX011 (sc), vehicle: steriod suspending solution",104 % of control
same,T/C,[8],96 % of control
same,T/C,[9],81 % of control
same,T/C,"dose: 40.0 mg/kg/injection, schedule: Q01DX011 (sc), vehicle: steriod suspending solution",89 % of control
same,T/C,"dose: 80.0 mg/kg/injection, schedule: Q01DX011 (sc), vehicle: steriod suspending solution",76 % of control
same,T/C,"dose: 125.0 mg/kg/injection, schedule: Q01DX011 (sc), vehicle: steriod suspending solution",199 % of control
same,T/C,[7],158 % of control
same,T/C,[10],207 % of control
same,T/C,"dose: 300.0 mg/kg/injection, schedule: Q01DX011 (sc), vehicle: steriod suspending solution",94 % of control
same,T/C,[12],185 % of control and 201 % of control
same,T/C,[11],171 % of control and 191 % of control and 257 % of control
CCOC(=O)NC,T/C,"dose: 75.0 mg/kg/injection, schedule: Q01DX011 (ip), vehicle: saline",114 % of control
same,T/C,"dose: 150.0 mg/kg/injection, schedule: Q01DX011 (ip), vehicle: saline",98 % of control
same,T/C,"dose: 300.0 mg/kg/injection, schedule: Q01DX011 (ip), vehicle: saline",75 % of control
same,T/C,"dose: 500.0 mg/kg/injection, schedule: Q01DX011 (ip), vehicle: saline",48 % of control
same,T/C,"dose: 600.0 mg/kg/injection, schedule: Q01DX011 (ip), vehicle: saline",53 % of control
same,T/C,"dose: 750.0 mg/kg/injection, schedule: Q01DX011 (ip), vehicle: saline",37 % of control
CN(N=O)C(N)=O,T/C,"dose: 4.0 mg/kg/injection, schedule: Q01DX011 (ip), vehicle: carboxymethylcellulose (CMC)",94 % of control and 95 % of control
same,T/C,"dose: 5.0 mg/kg/injection, schedule: Q01DX011 (ip), vehicle: saline",53 % of control
same,T/C,"dose: 8.0 mg/kg/injection, schedule: Q01DX011 (ip), vehicle: carboxymethylcellulose (CMC)",98 % of control and 117 % of control
same,T/C,[3],31 % of control
same,T/C,[4],20 % of control
same,T/C,"dose: 16.0 mg/kg/injection, schedule: Q01DX011 (ip), vehicle: carboxymethylcellulose (CMC)",46 % of control and 49 % of control
same,T/C,"dose: 22.0 mg/kg/injection, schedule: Q01DX011 (ip), vehicle: saline",22 % of control
same,T/C,[13],59 % of control
C[C@]12CCC(=O)C=C1CC[C@@H]1[C@@H]2[C@@H](O)C[C@@]2(C)[C@H]1CC[C@]2(O)C(=O)COC(=O)c1ccc([N+](=O)[O-])cc1Cl,T/C,[5],69 % of control
same,T/C,[6],58 % of control
same,T/C,[7],55 % of control
same,T/C,[12],35 % of control
CC1CN1C(=O)c1cc(C(=O)N2CC2C)cc(C(=O)N2CC2C)c1 (stereo not given),T/C,"dose: 15.0 mg/kg/injection, schedule: Q01DX011 (ip), vehicle: carboxymethylcellulose (CMC)",70 % of control
same,T/C,[13],151 % of control
same,T/C,"dose: 60.0 mg/kg/injection, schedule: Q01DX011 (ip), vehicle: carboxymethylcellulose (CMC)",47 % of control
CCN(CC)CCN1C(=O)c2cccc3cccc(c23)C1=O,T/C,"dose: 25.0 mg/kg/injection, schedule: Q01DX011 (ip), vehicle: saline",106 % of control
same,T/C,"dose: 50.0 mg/kg/injection, schedule: Q01DX011 (ip), vehicle: saline",72 % of control
same,T/C,"dose: 100.0 mg/kg/injection, schedule: Q01DX011 (ip), vehicle: saline",85 % of control
